This is an account of results in publication PMC9221018, “Sulfonamide-Derived Dithiocarbamate Gold(I) Complexes Induce the Apoptosis of Colon Cancer Cells by the Activation of Caspase 3 and Redox Imbalance” (Biomedicines, 2022).

Where two headings read alike, the source gives them in different places.

Assay [1] has as its system differentiated Caco-2 cells. In words: MTT cytotoxicity assay in differentiated Caco-2 cells (healthy cell model). The format is cell-based, human. The conditions noted are these: for decrease of cell viability: complexes at their IC50 (1 1.14 μM, 3 1.7 μM, 8 7.22 μM, 9 8.56 μM), 72 h; for IC50: treatment for 72 h. How it is done:
(§1) The human Caco-2 cell line (TC7 clone) was kindly provided by Dr. Edith Brot-Laroche (Université Pierre et Marie Curie-Paris 6, UMR S 872, Les Cordeliers, France). Human epithelial fibroblast cells (NHDF-Ad, Lonza®®, Porriño, Spain) were kindly provided by Dr. Gracia Mendoza (Aragon Health Research Institute, IIS Aragón, Spain). Caco-2 cells (passages 40–70) and fibroblasts (passages 10–30) were maintained in a humidified atmosphere of 5% CO2 at 37 °C and grown in medium following the method used by Quero et al.. The Caco-2 cells were sub-cultured in 25 cm^2 plastic flasks at a density of 1.2 × 10^4 cells/cm^2, while the fibroblasts were sub-cultured on 75 cm^2 plastic flasks at a density of 1 × 10^4 cells/cm^2. The culture medium was replaced every 2 days.
(§2) The gold complexes were diluted in dimethyl sulfoxide (DMSO) as a 10 mM stock solution, and then diluted in cell culture medium at the desired concentrations.
(§3) For the cytotoxicity screening assays, Caco-2 cells were seeded in 96-well plates at a density of 4 × 10^3 cells/well. The culture medium was replaced with medium containing the drug panel 24 h post-seeding, and the cells were incubated for 24, 48 and 72 h. […] In differentiated Caco-2 and fibroblasts, culture medium containing metal gold complexes was added 15 days post-seeding, and the cells were incubated for 72 h. The antiproliferative effect was measured using an MTT assay, as previously described by Mármol et al.. The absorbance at 540/620 nm was measured using a SPECTROstar Nano (BMG Labtech, Ortenberg, Germany). In order to determine the selectivity index (SI), the IC50 value of the differentiated Caco-2 cells was divided by IC50 value in undifferentiated Caco-2, obtaining the ratio of the normal/cancerous cells’ toxicity.

The subject of assay [2] is Caco-2 cells. In words: MTT cytotoxicity assay in undifferentiated Caco-2 cells. In kind it is cell-based, human. The method, then:
as §1, §2, §3

Assay [3] has as its system Caco-2 cells. In words: Apoptosis measurement, annexin V-FITC/PI flow cytometry. The conditions noted are these: complex 1 1.14 µM 48 h, complex 8 7.22 µM 72 h. In kind it is cell-based, human. The method, then:
Caco-2 cells were seeded in 75 cm^2 flasks at a density of 1 × 10^4 cells/cm^2, then exposed to the drug panel for 48 or 72 h depending on the compound tested, and them stained with annexin V-FITC and sodium iodide propidio according to the manufacturer’s instructions. The cells were then transferred to flow cytometry tubes and washed twice with phosphate-buffered saline (PBS); they were then resuspended in 100 µL annexing V binding buffer (100 mM Hepes/NaOH pH 7.4, […], 2.5 mM CaCl2). In total, 5 µL annexin V-FITC and 5 µL propidium iodide (PI) were added to the tube. After 15 min of incubation at room temperature protected from light, 400 µL annexin binding buffer was added to each sample, and the signal intensity was analyzed within 1 h with Beckman Coulter Gallios (Brea, CA, USA). The data were analyzed with BD FACSDivaTM [59].

In assay [4] the target is T1, recombinant human carbonic anhydrase IX (Homo sapiens, UniProt Q16790).
T1 construct: purchased Sigma SRP6483
In words: Carbonic anhydrase IX esterase activity assay (4-NPA). In kind it is biochemical. Conditions: 30 μM, 5 min incubation. How it is done:
The in vitro effect of metal complexes on the enzyme carbonic anhydrase IX was analyzed by monitoring conversion of 4-nitrophenyl acetate (4-NPA) to 4-nitrophenol. The tests were carried out in 96-well plates. Gold complexes (4 µL) were incubated with 4 µL recombinant human carbonic anhydrase IX (Sigma SRP6483, St Louis, MO, USA) (50 µg/mL) at 25 °C for 5 min. PBS at pH 7.35 (Sigma D1408, St Louis, MO, USA) was added to reach a final volume of 90 µL. The reaction was started by adding 10 µL 4-NPA (0.5 mM in methanol), and the absorbance at 405 nm was monitored every 30 s for 1 h using a SPECTROstar Nano (BMG Labtech, Ortenberg, Germany) multiplate reader. The results were expressed as a percentage of CA-IX activity with respect to the control. The potency of the inhibtion referred to the incubation in the presence of indisulam (E7070, N-(3-chloro-7-indolyl)-1,4-benzenedisulfonamide) (Sigma SML1225, St Louis, MO, USA), which is a specific inhibitor of carbonic anhydrase isoforms IX and XII.

In assay [5] the test system is Caco-2 cells. In words: Intracellular ROS levels, dichlorofluorescein assay. In kind it is cell-based, human. The conditions noted are these: Caco-2, different concentrations, 1, 3 and 24 h. The method, then:
After the Caco-2 cells were seeded in a 96-well plate at a density of 4 × 10^3 cells/well, the intracellular ROS levels were determined with a dichlorofluorescein assay, following the protocol used by Quero et al.. The cells were exposed to the drug panel for 1, 3 and 24 h, and then incubated with 20 µM 2′-7′-dichlorofluorescein diacetate (DCFH-DA) (Merck KGaA, Darmstadt, Germany) in DMEM. The generation of oxidized derivative DCF was monitored by measuring the increase of the fluorescence for 1 h, at an emission wavelength of 520 nm and an excitation of 485 nm, using a FLUOstar Omega (BMG Labtech, Ortenberg, Germany) multiplate reader. The results were expressed as percentage of the fluorescence with respect to the control, considering the fluorescence intensity as a reflection of the intracellular ROS levels.

The test system of another assay is caspase-3. In words: Determination of active caspase 3 by flow cytometry. Conditions: Caco-2; complex 1 1.14 µM 48 h, complex 8 7.22 µM 72 h. In kind it is cell-based, human. How it is done:
Caco-2 cells were seeded in a 75 cm^2 flask at a density of 1 × 10^4 cells/cm^2; 24 h later, they were exposed to the drug panel for 48 or 72 h. Then, the cells were collected and processed as previously described. Finally, 50 µL of every sample was incubated with 5 µL anti-active caspase-3 (BD Pharmigen, San Diego, CA, USA, Clone C92-605) and 5 µL p53 antibody (Miltenyi, Auburn, CA, USA, Clone REA609). The fluorescence was measured by flow cytometry using a Beckman Coulter Gallios (Brea, CA, USA) equipped with a blue solid diode laser (488 nm) and a red solid diode laser (635 nm). For the caspase-3 determination, the excitation wavelength was set at 488 nm and the emission was set at 525 nm; for the p53 analysis, the excitation was set at 635 nm and the emission was set at 660 nm.

[6] abbreviates: 24 h incubation, read-out: IC50 24 h.
[7] abbreviates: 48 h incubation, read-out: IC50 48 h.
Where [8] appears, read: 72 h incubation, read-out: IC50 72 h.
Where [9] appears, read: treatment for 72 h, read-out: IC50.

Consider `O=S(=O)(NC(=S)[S][Au][PH](c1ccccc1)(c1ccccc1)c1ccccc1)c1ccccc1` [Complex 1, [Au(S2CNHSO2C6H5)(PPh3)]], for which, in assay [1], the “decrease of cell viability” value is reported as “did not compromise the viability”. For the same compound, the IC50 in assay [1] is 12.7 ± 0.47 µM; in the assay on Caco-2 cells [2] (setting [6]), 1.92 ± 0.13 µM; in the assay with Caco-2 cells [2] (setting [7]) it was 1.38 ± 0.21 µM; in the assay on Caco-2 cells [2] (setting [8]), 1.14 ± 0.25 µM; with Caco-2 cells [2] (setting [9]) it was 1.14 ± 0.25 µM. Besides, in the assay on Caco-2 cells [3], the “induction of apoptosis (annexin V/PI)” value is reported as “capable of inducing apoptosis”. In addition, the “reduction in the esterase activity of CA” value in assay [4] is reported as 48%. The “intracellular ROS levels” value in the assay on Caco-2 cells [5] was “time- and concentration-dependent pro-oxidant effect”. Further, the “percentage of cells with active caspase-3” value in the assay on caspase-3 is given as “increased the percentage of cells with active caspase-3”.

Take “[Au(S2CNHSO2-p-Me-C6H4)(IMePropargyl)] [Complex 8]”: the “decrease of cell viability” value in assay [1] is “did not compromise the viability”. In addition, the IC50 in assay [1] is 46.6 ± 3.26 µM; in the assay on Caco-2 cells [2] (setting [6]), > 50 µM; with Caco-2 cells [2] (setting [7]), 37.4 ± 7.48 µM; with Caco-2 cells [2] (setting [8]) it was 7.22 ± 0.38 µM; with Caco-2 cells [2] (setting [9]) it was 7.22 ± 0.38 µM. The “induction of apoptosis (annexin V/PI)” value in the assay with Caco-2 cells [3] is on record as “capable of inducing apoptosis”. In assay [4], the “reduction in the esterase activity of CA” value was 31%. Also, the “intracellular ROS levels” value with Caco-2 cells [5] is “time- and concentration-dependent pro-oxidant effect”. Besides, in the assay with caspase-3, the “percentage of cells with active caspase-3” value is on record as “increased the percentage of cells with active caspase-3”.
